Test system: human cancer cell linings
Test: Mice implanted with human cancer (tumor) cell linings: efficacy of MTA relative to SAMe
Format: in vivo
Description: It is therefore astonishing that MTA, in experimental results on mice implanted with tumor cell linings, was 10 times more efficacious than SAMe. Part of the pharmacodynamics is surely that MTA is toxic to many cancer cells that are deficient in the enzymes that are needed to process it. Yet this 10:1 efficacy ratio is inexplicable under the above suppositions!
This is extremely surprising in light of the above!

## CSC[C@H]1O[C@@H](n2cnc3c(N)ncnc32)[C@H](O)[C@@H]1O [MTA, 5-deoxy-5-methylthioadenosine]
Mice implanted with human cancer cell linings, ratio versus SAMe
  efficacy relative to SAMe: more than 10 fold
Mice implanted with tumor cell linings, ratio versus SAMe (10:1)
  efficacy of MTA relative to SAMe (times more efficacious): 10 times

Source: patent US20100062993A1, “Adenosine Nucleotides as Dietary Supplements and as Agents in the Prevention of Cancer and the Metastasis Thereof” (priority 2008, published 2010)
